From paper PMC8453481, “OFF-State-Specific Inhibition of the Proprotein Convertase Furin” (ACS Chemical Biology, 2021)
Where two headings read alike, the source gives them in different places. One block for each compound: values may come before it.

Legend:
human furin [1] = biological target: T1, human furin (Homo sapiens, UniProt P09958); assay: Enzyme kinetics with fluorogenic substrate pyr-ERTKR-AMC, furin; type: biochemical; settings: pH 7.0, 37 °C; for Ki: competitive inhibition model, constant inhibitor concentration, substrate dilution series, triplicate
T1 construct: made in house; host or cells: HEK293S cells, stably transfected (pCDNA3.1(+)), purified from conditioned medium
Protocol: (§1) HEK293S cells were stably transfected with the coding sequences of human furin,[20] PC5/6 (Arg33-Gly634, UNP[41] Q92824) and PC7 (Pro44-Thr667, UNP[41] Q16549) cloned into the pCDNA3.1(+) vector (ThermoFisher). Cells were grown in DMEM (4.5 g L^–1 glucose, 2 mM L-glutamine, 110 mg l^–1 sodium pyruvate, 3.7 g L^–1 NaHCO3, nonessential amino acids) supplemented with 10% (v/v) FBS. Polyclonal selection of stable cell lines was conducted in the presence of 500 μg mL^–1 G418 (Geneticin). The cells were grown in multilayer flasks (HyperFlask M, Corning) without G418 for large-scale protein expression. The medium of confluent expression cultures was exchanged with DMEM supplemented with 2 mM sodium butyrate as well as with FBS (2% (v/v), furin) or without FBS (PC5/6 and PC7). The medium exchange was repeated five (furin) or two (PC5/6 and PC7) times, and the centrifuged medium (20 min, 5500 g, 4 °C) was stored at −80 °C until further use.
(§2) The purification of human furin from a conditioned medium has been shown previously.[20] […]
(§3) Enzyme kinetic measurements were performed in 100 mM HEPES/NaOH, at pH 7.0, 2 mM CaCl2, and 0.2% (v/v) Triton X 100 with the fluorogenic substrate pyr-ERTKR-7-amino-4-methylcoumarin (Bachem) at 37 °C. The 100 μL reactions were prepared in 96-well black half-area plates (Corning), preincubated for 15 min at 37 °C and measured in a 96-well plate reader (Tecan infinite 200) at excitation and emission wavelengths of 380 and 460 nm. […] The KM values were determined with 1:2 dilution series of the substrate in the absence of an inhibitor (4.7 ± 0.4 μM for furin, 2.5 ± 0.2 μM for PC5/6, and 19.3 ± 0.8 μM for PC7; Figure S7). Enzyme kinetic data were evaluated with GRAPHPAD PRISM (GraphPad Software) using the prebuild “Michaelis–Menten” model to calculate KM and a competitive inhibition model (v = Vmax × S/[S + KM(1 + I/Ki)]; v = reaction velocity, Vmax = maximum velocity, S = substrate concentration, KM = Michaelis–Menten constant, Ki = inhibition constant) for Ki determination. […]

PC7 = biological target: T2, PC7 (Homo sapiens, UniProt Q16549); assay: Enzyme kinetics with fluorogenic substrate pyr-ERTKR-AMC, PC7; type: biochemical; settings: for potency loss / increase of the Ki for PC7 compared with furin: Ki PC7 versus Ki furin; for Ki: competitive inhibition model, constant inhibitor concentration, substrate dilution series, triplicate
T2 construct: PC7 (Pro44-Thr667, UNP[41] Q16549); made in house
T2 sequence (Q16549 142-667 limits assumed): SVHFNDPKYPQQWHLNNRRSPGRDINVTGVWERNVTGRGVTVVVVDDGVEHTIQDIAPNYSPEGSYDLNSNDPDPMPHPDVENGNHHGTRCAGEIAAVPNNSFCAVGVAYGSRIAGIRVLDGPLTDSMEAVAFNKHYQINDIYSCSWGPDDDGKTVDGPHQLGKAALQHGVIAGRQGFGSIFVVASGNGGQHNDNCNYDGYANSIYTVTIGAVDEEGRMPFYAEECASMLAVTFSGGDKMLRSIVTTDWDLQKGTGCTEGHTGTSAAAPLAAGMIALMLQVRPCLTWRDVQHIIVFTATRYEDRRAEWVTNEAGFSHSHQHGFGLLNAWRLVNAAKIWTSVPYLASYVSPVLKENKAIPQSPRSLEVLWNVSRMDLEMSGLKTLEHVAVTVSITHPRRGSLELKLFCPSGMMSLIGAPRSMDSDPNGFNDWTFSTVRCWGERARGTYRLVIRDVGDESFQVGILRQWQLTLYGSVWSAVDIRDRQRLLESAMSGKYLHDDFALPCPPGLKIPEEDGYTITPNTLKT
Protocol: as §1
The purification of human furin from a conditioned medium has been shown previously.[20] PC5/6 and PC7 were purified by immobilized metal affinity chromatography and gel permeation chromatography (GPC), as shown for furin but excluding the inhibitor affinity purification step.[20] PC7 (50 μg mL^–1) was fully activated in 50 mM Tris/HCl, at pH 7.5, 10 mM CaCl2, and 0.15 M NaCl, at pH 7.5, in the presence of 2.0 μg mL^–1 thermolysin for 16 h at 37 °C. To remove thermolysin, the reaction mixture was concentrated in an ultrafiltration device (30 kDa cutoff, amicon, Millipore) and subjected to GPC (both steps at 4 °C). Purified PC5/6 and PC7 were stored at −20 °C.
Enzyme kinetic measurements were performed in 100 mM HEPES/NaOH, at pH 7.0, 2 mM CaCl2, and 0.2% (v/v) Triton X 100 with the fluorogenic substrate pyr-ERTKR-7-amino-4-methylcoumarin (Bachem) at 37 °C. The 100 μL reactions were prepared in 96-well black half-area plates (Corning), preincubated for 15 min at 37 °C and measured in a 96-well plate reader (Tecan infinite 200) at excitation and emission wavelengths of 380 and 460 nm. Because of the autofluorescence of inhibitor 1, the Ki values were determined at constant inhibitor concentrations (1: 20 μM for furin, 15 μM for PC5/6 and 50 μM for PC7; 2: 10 μM for furin, 5 μM for PC5/6 and 15 μM for PC7) and 1:2 dilution series of the substrate (Figure S7). The KM values were determined with 1:2 dilution series of the substrate in the absence of an inhibitor (4.7 ± 0.4 μM for furin, 2.5 ± 0.2 μM for PC5/6, and 19.3 ± 0.8 μM for PC7; Figure S7). Enzyme kinetic data were evaluated with GRAPHPAD PRISM (GraphPad Software) using the prebuild “Michaelis–Menten” model to calculate KM and a competitive inhibition model (v = Vmax × S/[S + KM(1 + I/Ki)]; v = reaction velocity, Vmax = maximum velocity, S = substrate concentration, KM = Michaelis–Menten constant, Ki = inhibition constant) for Ki determination. All measurements were performed in triplicate.

PC5/6 = biological target: T3, PC5/6 (Homo sapiens, UniProt Q92824); assay: Enzyme kinetics with fluorogenic substrate pyr-ERTKR-AMC, PC5/6; type: biochemical; settings: pH 7.0, 37 °C; for Ki: competitive inhibition model, constant inhibitor concentration, substrate dilution series, triplicate
T3 construct: PC5/6 (Arg33-Gly634, UNP[41] Q92824); made in house; host or cells: HEK293S cells, stably transfected (pCDNA3.1(+)), purified from conditioned medium
T3 sequence (Q92824 33-634): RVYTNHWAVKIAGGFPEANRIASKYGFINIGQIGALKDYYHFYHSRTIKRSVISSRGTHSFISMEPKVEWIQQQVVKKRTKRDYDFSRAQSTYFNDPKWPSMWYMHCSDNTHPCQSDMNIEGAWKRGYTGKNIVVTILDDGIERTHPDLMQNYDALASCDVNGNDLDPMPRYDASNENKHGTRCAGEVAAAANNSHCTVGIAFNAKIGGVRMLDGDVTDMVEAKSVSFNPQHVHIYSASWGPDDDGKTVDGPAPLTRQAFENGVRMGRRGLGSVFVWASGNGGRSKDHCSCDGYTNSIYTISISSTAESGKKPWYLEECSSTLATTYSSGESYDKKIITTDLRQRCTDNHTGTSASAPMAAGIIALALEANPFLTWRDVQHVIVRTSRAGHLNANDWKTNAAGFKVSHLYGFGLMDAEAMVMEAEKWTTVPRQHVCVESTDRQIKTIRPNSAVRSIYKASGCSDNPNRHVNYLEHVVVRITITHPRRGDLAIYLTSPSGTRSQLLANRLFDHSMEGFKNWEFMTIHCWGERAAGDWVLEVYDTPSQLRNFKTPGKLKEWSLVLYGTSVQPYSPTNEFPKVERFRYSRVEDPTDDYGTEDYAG
Protocol: as §1, §2, §3

furin = settings: read-out: Ki furin (reported), cited from earlier work
[2] = ref 29; cited from earlier work
human furin [3] = biological target: T1, human furin; assay: Crystallography-based inhibitor titration of furin crystals (occupancy refinement); type: binding
Protocol: Because of the lower number of specific interactions, we assumed that the binding affinity of 2 for the S4 pocket is lower as compared to the S1 pocket. […] The strength of the electron density directly correlates to the occupation of the binding sites with the inhibitor. Indeed, we found the S1 pocket already occupied by 2 at 0.4 mM as indicated by the occupancy of 75% from crystallographic refinement (Table S2). […] The refined occupancy of inhibitor 2 at the S1 pocket at 40 mM concentration was 0.94. It should be noted that water molecules occupy the substrate binding pockets in absence of any ligand.[22] The binding sites of these water molecules overlap with the binding sites of the inhibitors and affect crystallographic occupancy refinement. Thus, the refined occupation should always be considered in context with the electron density (Figure 6C–E). […] We also observed a third binding site of 2 and 3 outside of the substrate binding cleft. Here, two inhibitor molecules are stacked between two arginine residues of a crystal contact. This binding mode is specific for the crystal lattice and thus is not expected to occur in solution (Figure S5B, D).
The optimized soaking solutions contained either 1.0 M NaCl, 200 mM Mes/NaOH, at pH 5.5, 10% (w/v) PEG8000, and 20% (v/v) DMSO or 0.25 M NaCl, 200 mM Mes/NaOH, at pH 5.5, 20% (w/v) PEG8000, and 20% (v/v) DMSO and were supplemented with the specific inhibitors. Inhibitors 1 and 2 were soaked at 20 mM concentration in 1 M NaCl containing soaking solution for 0.5 h. Inhibitor 3 and 4 were soaked in 0.25 M NaCl containing soaking solution for 0.5 h at an inhibitor concentration of 100 mM and 20 mM, respectively. For the inhibitor titration experiments with 2, 40 mM, 4 mM, or 0.4 mM of the inhibitor was soaked for 0.5 h in 0.25 M NaCl-containing soaking solution. Soaked crystals were flash cooled in liquid N2. Diffraction data collection was performed at the synchrotron beamline BL14.2[33] (BESSY-II) of Helmholtz-Zentrum Berlin (HZB). The data were processed using XDS[34] with XDS-APP[35] (v2.0) and the CCP4 program suite[36] (v.7.1.001). COOT[37] (v.0.8.9.2) was used for model building. Refinement was performed in PHENIX[38] (v1.18.2) using the PDB ID 5JXG([22]) as an initial model. One specific Rfree-set (initially generated up to 1.0 Å, ref ([22])) was transferred to the data sets prior refinement start. Geometry restraints of the inhibitors were obtained from the PRODRG server[39] and from the GRADE Web server (http://grade.globalphasing.org). All guanylhydrazones were modeled in the E configuration, which is in agreement with previous studies with model compounds.[40] Electron density omit maps were calculated in PHENIX[38] (v1.18.2). PYMOL was used for molecular graphics (http://www.pymol.org) and structural alignments. In the case of inhibitor titration experiments with 2, the structure was first built and refined for a crystal soaked at 40 mM. This structure was used to calculate refinements with (for occupancy calculation) and without (for omit map calculation) an inhibitor in the model for three additional crystals independently soaked at 40 mM, 4 mM, and 0.4 mM (Table S2) obtaining R/Rfree-values of 17.3/19.0, 17.5/19.1, and 17.7/19.3, respectively. The occupancy refinement yielded consistent B-factors between the three differently soaked structures (Table S2). Structure factors and coordinates of the complexes of furin with inhibitors 1, 2, at 1 M NaCl; 2 at 0.25 M NaCl; and 3 and 4 have been deposited as PDB entries 7O1U, 7O1W, 7O1Y, 7O20, and 7O22, respectively.

[4] = absence of inhibitor, 1:2 dilution series of the substrate
[5] = 0.4 mM inhibitor, 0.25 M NaCl soak
[6] = 0.4 mM inhibitor, 0.25 M NaCl soak, * very weak electron density
[7] = 4 mM inhibitor, 0.25 M NaCl soak
[8] = 40 mM inhibitor, 0.25 M NaCl soak

T1 sequence (P09958 108-574 limits assumed): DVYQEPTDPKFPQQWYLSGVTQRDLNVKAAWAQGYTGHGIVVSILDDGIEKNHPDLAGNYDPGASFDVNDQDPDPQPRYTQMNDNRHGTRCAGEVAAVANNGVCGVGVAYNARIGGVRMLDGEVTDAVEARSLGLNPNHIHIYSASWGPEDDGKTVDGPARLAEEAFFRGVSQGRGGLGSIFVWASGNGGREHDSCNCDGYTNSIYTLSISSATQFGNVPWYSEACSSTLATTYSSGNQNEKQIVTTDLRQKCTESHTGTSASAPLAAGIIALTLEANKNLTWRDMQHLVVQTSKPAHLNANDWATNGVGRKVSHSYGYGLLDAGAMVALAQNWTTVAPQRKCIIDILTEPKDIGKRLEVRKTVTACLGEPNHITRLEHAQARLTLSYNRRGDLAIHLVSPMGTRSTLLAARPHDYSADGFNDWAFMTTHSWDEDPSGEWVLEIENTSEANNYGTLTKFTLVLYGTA

Compound: C/C(=N\NC(=N)N)c1cc(N)cc(/C(C)=N/NC(=N)N)c1 [inhibitor 1]
Ki (human furin [1]): 3.3 ± 0.1 µM
potency loss / increase of the Ki for PC7 compared with furin (PC7): ~7 fold
Ki (PC7; pH 7.0, 37 °C): 22.4 ± 1.9 µM
Ki (PC5/6): 3.6 ± 0.2 µM

Compound: C/C(=N\NC(=N)N)c1ccccc1 [inhibitor 3]
Ki (furin; ref 26): 273 µM

Compound: N=C(N)N/N=C/c1ccccc1OCc1ccc(Cl)cc1 [inhibitor 4]
Ki (furin; ref 24): 11.8 µM
Ki (furin; ref 26): 25.3 µM

Compound: N=C(N)N/N=C/c1c(Cl)cccc1Cl [guanabenz]
pKa [2]: 8.1

Km (human furin [1]; [4]): 4.7 ± 0.4 µM
Km (PC7; absence of inhibitor, 1:2 dilution series of the substrate, pH 7.0, 37 °C): 19.3 ± 0.8 µM
Km (PC5/6; [4]): 2.5 ± 0.2 µM
Compound: pyr-ERTKR-7-amino-4-methylcoumarin [reference compound]

Compound: N=C(N)N/N=C/c1ccc(/C=N/NC(=N)N)cc1 [inhibitor 2]
occupancy at S1 pocket (human furin [3]; [5]): 75%
refined occupancy, molecule 1, S1 pocket (human furin [3]; [5]): 0.75
refined occupancy, molecule 2, S4 pocket (human furin [3]; [6]): 0.39
refined occupancy, molecule 3, crystal contact site (human furin [3]; [6]): 0.35
occupancy at S4 pocket (human furin [3]; [7]): 63%
refined occupancy, molecule 1, S1 pocket (human furin [3]; [7]): 0.87
refined occupancy, molecule 2, S4 pocket (human furin [3]; [7]): 0.63
refined occupancy, molecule 3, crystal contact site (human furin [3]; 4 mM inhibitor, 0.25 M NaCl soak, * very weak electron density): 0.38
occupancy at S4 pocket (human furin [3]; [8]): 82%
refined occupancy, molecule 1, S1 pocket (human furin [3]; [8]): 0.94
refined occupancy, molecule 2, S4 pocket (human furin [3]; [8]): 0.82
refined occupancy, molecule 3, crystal contact site (human furin [3]; [8]): 0.66
apparent dissociation constant at the S4 binding site (human furin [3]; estimated from inhibitor titration of crystals, 0.25 M NaCl): low millimolar range
Ki (human furin [1]): 3.1 ± 0.2 µM
potency loss / increase of the Ki for PC7 compared with furin (PC7): ~3 fold
Ki (PC7; pH 7.0, 37 °C): 10.4 ± 0.7 µM
Ki (PC5/6): 1.7 ± 0.2 µM
